The target in series [1] is T1, mouse EphA2 (Mus musculus, UniProt Q03145).
T1 construct: purchased SinoBiological 50586-M08H
The series can be described thus: SPR binding affinity (Biacore T200, CM5 chip). As to conditions: 25 °C, HBS-P + 0.1% DMSO, 1:1 kinetics model. As to the method:
(§1) All experiments were conducted using a Biacore T200 instrument (GE Healthcare Life Sciences) with a CM5 chip at 25 °C. His-tagged human EphA2 (R&D systems, catalog # 3035-A2, 56.9 kDa, 4.46 μM stock concentration) and mouse EphA2 (SinoBiological, cat.# 50586-M08H, 58 kDa, 8.6 μM stock concentration) were immobilized onto the CM5 chip. AJ201 (3328.8 Da, 10 mM stock concentration) and AJ210 (3072.5 Da, 10 mM stock concentration) were used as analyte to flow over the ligand immobilized surface. Flow Cell (FC) 1 was used as the reference for FC2, FC3 for FC4. Anti-His antibody (2 mg/ml stock concentration) was diluted (1:100 dilution, 0.02 mg/ml diluted concentration) in 10 mM sodium acetate buffer at pH 4.5 and immobilized on all FCs to a level of ~8000 to 11000 RU using the standard amine coupling chemistry. HBS-P (10 mM HEPES pH 7.4, 150 mM NaCl, 0.05% v/v surfactant P20) was used as the immobilization running buffer. Human EphA2 was diluted (1:5 dilution) in HBS-P captured onto FC2 to a level of ~750 RU. Mouse EphA2 was diluted (1:10 dilution) in HBS-P captured onto FC4 to a level of ~750 RU. HBS-P was used as the capture running buffer. The Rmax values assume 1:1 interaction mechanism. Overnight kinetics were performed for all analytes in the presence of HBS-P+0.1% DMSO. The flow rate of all analyte solutions was maintained at 50 μL/min. The contact and dissociation times used were 120s and 600s, respectively. Glycine solution (pH 1.5) was injected for 15 s for surface regeneration and fresh ligands were captured in the beginning of each injection cycle. Sensorgrams from the overnight kinetics was evaluated by using 1:1 kinetics model fitting.
Background: Surface plasmon resonance follows binding to a sensor surface in real time, without labels.

Series [2] concerns the target T2, human EphA2 (Homo sapiens, UniProt P29317).
T2 construct: purchased R&D systems 3035-A2
The series can be described thus: SPR binding affinity (Biacore T200, CM5 chip). Conditions: 25 °C, HBS-P + 0.1% DMSO, 1:1 kinetics model. The protocol:
as §1

Series [3] can be described thus: Ex vivo biodistribution. On the set-up: species or system NSG mice. Conditions: both sexes, NSG, mouse, in vivo, 50 uCi, total radioactivity. The protocol:
Animal studies were performed under Johns Hopkins University Animal Care and Use Committee (ACUC)-approved protocol (Principal investigator: Sridhar Nimmagadda, Ph.D. and Protocol number M021M175). Male and Female NSG mice (5-6 weeks old) were purchased from JHU immunocompromised core and used to establish xenografts by administering cells subcutaneously (top right flank, unless otherwise noted) to form various tumor models within 3-4 weeks. Following cell numbers were used: Panc1, AsPC1, BxPC3 (1 M), Hs766T and SU8686 (2 M), CFPAC and Panc1005 (5 M). Imaging or biodistribution studies (n = 3-5) were conducted on mice with tumor volumes of 100-200 mm^3. The Panc1 orthotopic tumor model was established by surgically implanting a 3-5 mm^3 section of Panc1 tumor xenograft directly onto the pancreas. The implanted tumors were allowed to grow and were ready for imaging after 10 days of implantation.
(§2) Mice with 100-200 mm^3 tumor volume were used for ex vivo biodistribution studies. For radiotracer pharmacokinetics and dosimetry studies, mice with Panc1 tumor xenograft received ~80 µCi (2.96 MBq) [^68Ga]AJ201 and were sacrificed at pre-determined time points (5, 30, 60, 90 and 120 min). All other mice were injected with ~50 µCi (1.85 MBq; 0.2 to 0.5 nmol) Ga-68 labeled radiotracer and were sacrificed at 60 min. The selected tissues were collected, weighed, counted, and their %ID/g values calculated for biodistribution analysis. For pharmacokinetics and dosimetry studies, selected tissues included blood, muscle, tumor, thymus, heart, lung, liver, pancreas, stomach, small intestine, large intestine, spleen, adrenals, kidney, bladder, femur, brain and tumor xenografts. For other studies, selected tissues were blood, muscle, tumor, heart, lung, liver, pancreas, small intestine, spleen, kidney.

Series [4] is described as follows: Ex vivo biodistribution. In kind it is in vivo, mice. Conditions: mouse, in vivo, 50 uCi, total radioactivity. As to the method:
as §2

On the set-up of series [5]: species or system C57BL/6 mice. As to conditions: mouse, in vivo. The protocol:
Male C57BL/6 mice (5-6 weeks old) were used to establish syngeneic tumor by administering KPC cells subcutaneously in top right flank. For this study, 0.5 million cells were inoculated subcutaneously into the upper flank of each animal. Tumor growth was closely monitored, and once tumors became palpable, their volumes were measured using a vernier caliper. Animals were then randomized into groups to ensure balanced baseline tumor sizes, with median volumes of approximately 60 mm^3 (PBS group median: 60 mm^3; radiotherapeutic group median: 57 mm^3). Following randomization, two subsequent doses of 0.5 µCi of [^225Ac]AJ210 were administered intravenously with the interval of 24 h. Similarly, saline was administered in the control group. Measurements of tumor volume and body weight were conducted in alternative days until the end of study. Blood was collected retro-orbitally at 3-, 7- and 28-days post radiotherapy injection and hematological parameter were assessed using SCIL Vet ABC Plus instrument.
Tissue blocks and slides of liver, kidneys and lungs were prepared by JHU histology core and staining was also carried out by the Core. Briefly, tissue samples were fixed in formalin for 24 h and rinsed with PBS and stored in PBS. These tissue samples were dehydrated through graded ethanol series, cleared in xylene, and embedded in paraffin. Sections (4-5 µm thick) were cut using a microtome and mounted on glass slides. The slides were deparaffinized in xylene, rehydrated through graded ethanol to distilled water, and stained with hematoxylin for 5 min. After rinsing in running water, sections were differentiated in 1% acid alcohol, blued in ammonia water, and counterstained with eosin for 1-2 min. Slides were dehydrated, cleared in xylene, and mounted with a coverslip using a permanent mounting medium. Images were captured under a brightfield microscope to evaluate tissue structure and histopathological features.

We go through three compounds from article PMC11984392, “EphA2-targeted alpha-particle theranostics for enhancing PDAC treatment” (Theranostics, 2025).

*1 amine or outer side, *2 acyl side, *3 side chain or, on linkers, in order; H or OH if unused. Where a SMILES comes first, the peptide text is derived from it. Bridges are numbered along the chain shown (N, C = ends). [ ]: non-standard residue; d: D form. The star is where a group is joined. DOTA = O=C(O)CN1CCN(CC(=O)O)CCN(CC(=O)*)CCN(CC(=O)O)CC1; TATA = O=C(CC[*:1])N1CN(C(=O)CC[*:2])CN(C(=O)CC[*:3])C1; NOTA = O=C(O)CN1CCN(CC(=O)O)CCN(CC(=O)*)CC1; Hyp = O=C(O)[C@@H]1C[C@@H](O)CN1; hArg = N=C(N)NCCCC[C@H](N)C(=O)O; PEG2 = NCCOCCOCCC(=O)O; Sar = CNCC(=O)O

T2 sequence (P29317 25-534 limits assumed): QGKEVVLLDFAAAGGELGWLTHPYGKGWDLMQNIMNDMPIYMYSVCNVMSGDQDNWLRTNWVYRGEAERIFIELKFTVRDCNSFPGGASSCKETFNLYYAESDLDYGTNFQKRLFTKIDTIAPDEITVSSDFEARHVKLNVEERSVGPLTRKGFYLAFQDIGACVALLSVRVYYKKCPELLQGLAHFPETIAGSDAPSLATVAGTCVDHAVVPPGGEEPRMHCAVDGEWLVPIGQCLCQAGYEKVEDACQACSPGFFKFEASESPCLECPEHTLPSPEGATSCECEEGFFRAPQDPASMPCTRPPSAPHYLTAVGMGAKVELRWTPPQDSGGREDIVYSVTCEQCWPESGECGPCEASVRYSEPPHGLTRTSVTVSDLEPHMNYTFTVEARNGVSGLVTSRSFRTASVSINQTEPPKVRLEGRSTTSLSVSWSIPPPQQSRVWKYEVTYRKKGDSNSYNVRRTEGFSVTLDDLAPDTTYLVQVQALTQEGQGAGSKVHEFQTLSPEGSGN
T1 sequence (Q03145 26-535 limits assumed): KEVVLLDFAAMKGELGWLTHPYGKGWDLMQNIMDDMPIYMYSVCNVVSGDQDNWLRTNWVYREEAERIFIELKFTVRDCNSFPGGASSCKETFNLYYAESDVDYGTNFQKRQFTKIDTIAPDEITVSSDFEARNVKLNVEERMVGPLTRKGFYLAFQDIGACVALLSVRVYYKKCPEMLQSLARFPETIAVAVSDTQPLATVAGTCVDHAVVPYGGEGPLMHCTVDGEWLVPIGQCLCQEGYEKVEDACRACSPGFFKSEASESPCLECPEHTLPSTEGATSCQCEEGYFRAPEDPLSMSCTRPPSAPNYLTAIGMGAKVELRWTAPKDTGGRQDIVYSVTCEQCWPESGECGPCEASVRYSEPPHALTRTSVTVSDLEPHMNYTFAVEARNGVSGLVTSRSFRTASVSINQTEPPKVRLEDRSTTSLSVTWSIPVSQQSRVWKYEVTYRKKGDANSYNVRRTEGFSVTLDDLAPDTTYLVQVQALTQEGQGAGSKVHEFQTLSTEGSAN

The koff is a measure of how fast the partners let go of each other. Broadly, the kon is the rate constant with which the complex forms. As for `CC(C)C[C@@H]1NC(=O)[C@@H]2CSCCC(=O)N3CN(CN(C3)C(=O)CCSC[C@H](NC(=O)[C@H](CC(=O)O)NC(=O)[C@H](CCCCNC(=N)N)NC(=O)[C@H](C)NC(=O)CNC(=O)CN(C)C(=O)CN(C)C(=O)CN(C)C(=O)[C@H](CCCNC(=N)N)NC(=O)CNC(=O)CCOCCOCCNC(=O)CN3CCN(CC(=O)O)CCN(CC(=O)O)CC3)C(=O)N3C[C@H](O)C[C@H]3C(=O)N[C@@H](CC(C)C)C(=O)N[C@@H](C(C)C)C(=O)N[C@@H](CC(N)=O)C(=O)N3CCC[C@H]3C(=O)N[C@@H](CC(C)C)C(=O)N2)C(=O)CCSC[C@@H](C(N)=O)NC(=O)[C@H](CCCCNC(=N)N)NC(=O)[C@H](Cc2c[nH]c3ccccc23)NC(=O)[C@@H](CC(=O)O)NC(=O)[C@@H]2CCCN2C(=O)[C@H](Cc2c[nH]cn2)NC1=O` [AJ201] ({NOTA-PEG2}-GR[Sar][Sar][Sar]GA[hArg]DC[Hyp]LVNPLCLHP[dD]W[hArg]C-NH2; linker 10-17-24 via TATA), the off-rate constant (koff) was found to be 0.00302 s⁻¹ in series [1] and 0.00133 s⁻¹ in series [2]. In addition, the kon is 5.03e+06 M⁻¹ s⁻¹ in series [1] and 7.6e+06 M⁻¹ s⁻¹ in series [2].
The term tissue uptake denotes the share of the injected amount in each gram of the tissue. On to `CC(C)C[C@@H]1NC(=O)[C@@H]2CSCCC(=O)N3CN(CN(C3)C(=O)CCSC[C@H](NC(=O)[C@H](CC(=O)O)NC(=O)[C@H](CCCCNC(=N)N)NC(=O)[C@H](C)NC(=O)CNC(=O)CNC(=O)CNC(=O)CNC(=O)CNC(=O)CN3CCN(CC(=O)O)CCN(CC(=O)O)CCN(CC(=O)O)CC3)C(=O)N3C[C@H](O)C[C@H]3C(=O)N[C@@H](CC(C)C)C(=O)N[C@@H](C(C)C)C(=O)N[C@@H](CC(N)=O)C(=O)N3CCC[C@H]3C(=O)N[C@@H](CC(C)C)C(=O)N2)C(=O)CCSC[C@@H](C(N)=O)NC(=O)[C@H](CCCCNC(=N)N)NC(=O)[C@H](Cc2c[nH]c3ccccc23)NC(=O)[C@@H](CC(=O)O)NC(=O)[C@@H]2CCCN2C(=O)[C@H](Cc2c[nH]cn2)NC1=O` [[^68Ga]AJ210, metal not drawn] ({DOTA}-GGGGGA[hArg]DC[Hyp]LVNPLCLHP[dD]W[hArg]C-NH2; linker 9-16-23 via TATA), for which the tissue uptake at 1 h in series [3] (Blood uptake) was 0.96 ± 0.33 %ID/g; in series [3] (Femur uptake), 0.38 ± 0.08 %ID/g; in series [3] (Heart uptake) it was 0.84 ± 0.14 %ID/g; in series [3] (Kidney uptake) it was 24.4 ± 9.98 %ID/g; in series [3] (Liver uptake), 0.34 ± 0.06 %ID/g; in series [3] (Lung uptake), 0.39 ± 0.08 %ID/g. The tissue uptake at 1 h in series [3] (Muscle uptake) stood at 0.4 ± 0.16 %ID/g; in series [3] (Pancreas uptake), 0.3 ± 0.08 %ID/g; in series [3] (Small intestine uptake), 0.62 ± 0.22 %ID/g; in series [3] (Spleen uptake) it was 0.74 ± 0.22 %ID/g; in series [3] (Stomach uptake), 0.09 ± 0.03 %ID/g; in series [3] (Tumor uptake), 3.72 ± 0.66 %ID/g. Moreover, the tissue uptake at 1 h in series [4] (Blood uptake) was 0.56 ± 0.14 %ID/g; in series [4] (Femur uptake), 0.29 ± 0.07 %ID/g; in series [4] (Heart uptake), 0.24 ± 0.05 %ID/g; in series [4] (Kidney uptake), 59.9 ± 16.4 %ID/g; in series [4] (Liver uptake) it was 0.26 ± 0.05 %ID/g; in series [4] (Lung uptake), 0.57 ± 0.13 %ID/g. The tissue uptake at 1 h in series [4] (Muscle uptake) was 0.19 ± 0.04 %ID/g; in series [4] (Pancreas uptake), 0.24 ± 0.06 %ID/g; in series [4] (Small intestine uptake), 0.64 ± 0.47 %ID/g; in series [4] (Spleen uptake) it was 0.35 ± 0.07 %ID/g; in series [4] (Stomach uptake) it was 0.17 ± 0.07 %ID/g; in series [4] (Tumor uptake), 1.06 ± 0.25 %ID/g. Besides, the tissue to tissue ratio at 1 h in series [3] (Tumor/Muscle ratio) was determined as 10.3 ± 4.01; in series [3] (Tumor/Pancreas ratio), 13.1 ± 4.11; in series [3] (Tumor/blood ratio), 4.09 ± 0.97; in series [4] (Tumor/Muscle ratio) it was 5.61 ± 0.69; in series [4] (Tumor/Pancreas ratio), 4.65 ± 1.46; in series [4] (Tumor/blood ratio), 1.94 ± 0.44.
For the compound `CC(C)C[C@@H]1NC(=O)[C@@H]2CSCCC(=O)N3CN(CN(C3)C(=O)CCSC[C@H](NC(=O)[C@H](CC(=O)O)NC(=O)[C@H](CCCCNC(=N)N)NC(=O)[C@H](C)NC(=O)CNC(=O)CNC(=O)CNC(=O)CNC(=O)CNC(=O)CN3CCN(CC(=O)O)CCN(CC(=O)O)CCN(CC(=O)O)CC3)C(=O)N3C[C@H](O)C[C@H]3C(=O)N[C@@H](CC(C)C)C(=O)N[C@@H](C(C)C)C(=O)N[C@@H](CC(N)=O)C(=O)N3CCC[C@H]3C(=O)N[C@@H](CC(C)C)C(=O)N2)C(=O)CCSC[C@@H](C(N)=O)NC(=O)[C@H](CCCCNC(=N)N)NC(=O)[C@H](Cc2c[nH]c3ccccc23)NC(=O)[C@@H](CC(=O)O)NC(=O)[C@@H]2CCCN2C(=O)[C@H](Cc2c[nH]cn2)NC1=O` [[^225Ac]AJ210, metal not drawn] ({DOTA}-GGGGGA[hArg]DC[Hyp]LVNPLCLHP[dD]W[hArg]C-NH2; linker 9-16-23 via TATA), in series [5], the “H&E histology of kidney” value is listed as “no significant pathological changes”; the “H&E histology of liver” value is on record as “no significant pathological changes”; the “H&E histology of lungs” value is given as “no significant pathological changes”; the “H&E staining of lung, liver and kidney sections” value is listed as “no visible histological abnormalities”.
